Among the data in US20240294522A1 (Lead Discovery Center GmbH, priority 2021, published 2024) are IC50 values, retold here.

For one test, the target named is T1, GRK5 (Homo sapiens, UniProt P34947).
T1 construct: purchased Thermo Scientific
The experiment in a line: Lance Kinase Activity Assay, GRK5. The settings on record: biochemical Lance kinase activity assay; class symbols A-F; read-out: GRK5 LANCE Assay (IC-50). Here is the method: (§1) This protocol describes how the Lance Kinase Activity Assay was performed to determine IC50 values of compounds of general formula (I) against GRK5 and GRK2.
(§2) The principle behind this enzymatic assay is based upon the phosphorylation of the Ulight-peptide substrate. It is detected by using a specific EU-labeled anti-phospho peptide antibody. The binding of the Eu labeled anti-phospho peptide antibody to the phosphorylated ULight labeled peptide gives rise to a FRET-signal. Binding of an inhibitor to the kinase prevents phosphorylation of the Ulight-substrate, resulting in a loss of FRET. In tables 2 and 3 the relevant information for these two LANCE assays is summarized.
(§3) For every sample, 2 μl of assay buffer (50 mM HEPES pH 7,5, 10 mM MgCL2, 1 mM EGTA 0,01% Tween 20, 1% DMSO, 2 mM DTT) were transferred into a suitable assay plate (e.g. Corning #3673). Compounds were added in a concentration range from 10 μM to 0.0025 μM using an acoustic dispenser (Echo520 from Labcycte, San Jose, USA) equipped with Echo Dose Response software. After that 6 μl of kinase-substrate mix was added. Reaction was started by addition of 2 μl ATP working solution and mixed using a Bioshake 5000 microplate shaker (Q Instruments, Jena, Germany).
(§4) After 1 h incubation at room temperature the reaction was stopped with 10 μl detection mix containing the Eu-labeled phosphospecific antibody and 10 mM EDTA. After a second incubation period of 1 h at room temperature the FRET signal was measured at 340 nm excitation, 665 nm and 615 nm emission (for the ULight-substrate and Eu-AB, respectively) with an Envision microplate reader (Perkin Elmer, Waltham, MA, USA) with 50 μs delay and 300 μs integration time. IC50 values were determined from the sigmoidal dose response curves with the software Quattro Workflow (Quattro GmbH, Munich, Germany).
(§5) Inhibition is indicated as IC50 [nM] (“−”=not measured). Compounds having an activity designated as “A” provided an IC50≤50 nM; compounds having an activity designated as “B” provided an 50 nM<IC50≤100 nM; compounds having an activity designated as “C” provided an 100 nM<IC50≤500 nM; compounds having an activity designated as “D” provided an 500 nM<IC50≤1000 nM; compounds having an activity designated as “E” provided an 1000 nM<IC50≤10000 nM; and compounds having an activity designated as “F” provided an IC50>10000 nM.
On the technique in general: TR-FRET usually uses a lanthanide donor and a delayed reading to cut background.

The target of the next test is T2, GRK2 (Homo sapiens, UniProt P25098).
T2 construct: purchased Thermo Scientific
T2 sequence (P25098 1-689): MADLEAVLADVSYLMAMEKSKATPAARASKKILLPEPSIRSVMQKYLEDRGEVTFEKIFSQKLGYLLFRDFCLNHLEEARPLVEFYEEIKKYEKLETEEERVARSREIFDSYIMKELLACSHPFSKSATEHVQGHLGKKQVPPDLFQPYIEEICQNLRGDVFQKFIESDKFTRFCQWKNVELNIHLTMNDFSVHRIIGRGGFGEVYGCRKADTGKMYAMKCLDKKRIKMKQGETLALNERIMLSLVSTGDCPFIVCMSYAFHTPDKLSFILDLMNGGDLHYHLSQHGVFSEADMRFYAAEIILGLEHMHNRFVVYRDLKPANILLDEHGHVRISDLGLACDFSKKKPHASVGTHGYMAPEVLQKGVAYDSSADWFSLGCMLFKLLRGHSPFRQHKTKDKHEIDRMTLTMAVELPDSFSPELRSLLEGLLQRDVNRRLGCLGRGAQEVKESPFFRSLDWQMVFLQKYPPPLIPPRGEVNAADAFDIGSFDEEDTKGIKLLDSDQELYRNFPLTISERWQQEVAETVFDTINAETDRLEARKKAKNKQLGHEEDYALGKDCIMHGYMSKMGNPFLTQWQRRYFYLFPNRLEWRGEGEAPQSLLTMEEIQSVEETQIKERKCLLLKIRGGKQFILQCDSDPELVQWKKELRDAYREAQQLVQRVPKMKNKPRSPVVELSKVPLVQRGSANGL
Put plainly: Lance Kinase Activity Assay, GRK2. The following applies: biochemical Lance kinase activity assay; class symbols A-F; read-out: GRK2 LANCE Assay (IC-50). The procedure:
as §1, §2, §3, §4, §5

T1 sequence (P34947 whole entry): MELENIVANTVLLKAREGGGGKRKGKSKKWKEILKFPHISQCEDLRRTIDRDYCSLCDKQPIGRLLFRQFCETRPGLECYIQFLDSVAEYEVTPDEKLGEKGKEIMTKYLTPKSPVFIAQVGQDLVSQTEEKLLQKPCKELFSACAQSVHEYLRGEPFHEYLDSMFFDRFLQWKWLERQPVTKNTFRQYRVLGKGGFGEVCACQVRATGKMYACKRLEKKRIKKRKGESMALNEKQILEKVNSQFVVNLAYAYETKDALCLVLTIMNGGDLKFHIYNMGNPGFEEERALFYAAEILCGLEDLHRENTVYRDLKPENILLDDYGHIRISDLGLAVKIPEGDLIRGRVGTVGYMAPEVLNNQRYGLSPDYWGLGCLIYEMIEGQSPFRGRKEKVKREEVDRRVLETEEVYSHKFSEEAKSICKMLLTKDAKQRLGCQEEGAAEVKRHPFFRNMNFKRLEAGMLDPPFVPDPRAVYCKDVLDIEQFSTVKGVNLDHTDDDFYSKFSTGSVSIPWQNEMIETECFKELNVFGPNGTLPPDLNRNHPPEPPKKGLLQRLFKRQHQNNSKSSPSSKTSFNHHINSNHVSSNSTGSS

As for `COc1cc([C@@H](C)NC(=O)/C=C/c2c[nH]c3ncc(C)cc23)ccc1F` [Example 54, (R,E)-N-(1-(4-fluoro-3-methoxyphenyl)ethyl)-3-(5-methyl-1H-pyrrolo[2,3-b]pyridin-3-yl)acrylamide], the IC50 on GRK5 and at GRK2 was at most 50 nM each time.
Take `COc1ccc([C@@H](C)NC(=O)/C=C/c2c[nH]c3ncc(OC4CCS(=O)(=O)CC4)cc23)cc1OC` [Example 55, (R,E)-N-(1-(3,4-dimethoxyphenyl)ethyl)-3-(5-((1,1-dioxidotetrahydro-2H-thiopyran-4-yl)oxy)-1H-pyrrolo[2,3-b]pyridin-3-yl)acrylamide]: the IC50 on GRK5 is at most 50 nM; at GRK2 it was above 10000 nM.
Regarding `COc1ccc([C@@H](C)NC(=O)/C=C/c2c[nH]c3ncc(OCCN(C)C)cc23)cc1OC` [Example 56, (R,E)-N-(1-(3,4-dimethoxyphenyl)ethyl)-3-(5-(2-(dimethylamino)ethoxy)-1H-pyrrolo[2,3-b]pyridin-3-yl)acrylamide], the IC50 at GRK5 was 50 to 100 nM; at GRK2, above 10000 nM.
Turning to `N#C/C(=C\c1c[nH]c2ncccc12)C(=O)NCc1ccc(F)cc1` [Example 57, (E)-2-cyano-N-(4-fluorobenzyl)-3-(1H-pyrrolo[2,3-b]pyridin-3-yl)acrylamide], the IC50 on GRK5 fell in the range of 100 to 500 nM; on GRK2 it was 1000 to 10000 nM.
With `N#C/C(=C\c1c[nH]c2ncccc12)C(=O)NCc1ccc(Cl)cc1` [Example 58, (E)-N-(4-chlorobenzyl)-2-cyano-3-(1H-pyrrolo[2,3-b]pyridin-3-yl)acrylamide], the IC50 lay within 100 to 500 nM at GRK5 and 1000 to 10000 nM on GRK2.
With `N#C/C(=C\c1c[nH]c2ncccc12)C(=O)NCc1ccc(C(F)(F)F)cc1` [Example 59, (E)-2-cyano-3-(1H-pyrrolo[2,3-b]pyridin-3-yl)-N-(4-(trifluoromethyl)benzyl)acrylamide], the IC50 on GRK5 and at GRK2 was 1000 to 10000 nM in each case.
As for `N#C/C(=C\c1c[nH]c2ncccc12)C(=O)NCc1cccc(Cl)c1` [Example 60, (E)-N-(3-chlorobenzyl)-2-cyano-3-(1H-pyrrolo[2,3-b]pyridin-3-yl)acrylamide], the IC50 at GRK5 and on GRK2 was 100 to 500 nM in each case.
For the molecule `N#C/C(=C\c1c[nH]c2ncccc12)C(=O)NCc1cccc(C(F)(F)F)c1` [Example 61, (E)-2-cyano-3-(1H-pyrrolo[2,3-b]pyridin-3-yl)-N-(3-(trifluoromethyl)benzyl)acrylamide], the IC50 on GRK5 is 500 to 1000 nM; at GRK2, 1000 to 10000 nM.
For the molecule `N#C/C(=C\c1c[nH]c2ncccc12)C(=O)NCc1ccccc1Cl` [Example 62, (E)-N-(2-chlorobenzyl)-2-cyano-3-(1H-pyrrolo[2,3-b]pyridin-3-yl)acrylamide], the IC50 at GRK5 was 100 to 500 nM; at GRK2, 1000 to 10000 nM.
As for `CC(NC(=O)/C(C#N)=C/c1c[nH]c2ncccc12)c1ccc(F)cc1` (stereo not drawn) [Example 63, (E)-2-cyano-N-(1-(4-fluorophenyl)ethyl)-3-(1H-pyrrolo[2,3-b]pyridin-3-yl)acrylamide], the IC50 on GRK5 and at GRK2 was 100 to 500 nM each time.
As to `C[C@@H](NC(=O)/C(C#N)=C/c1c[nH]c2ncccc12)c1ccccc1` [Example 64, (R,E)-2-cyano-N-(1-phenylethyl)-3-(1H-pyrrolo[2,3-b]pyridin-3-yl)acrylamide], the figures for the IC50 on GRK5 and on GRK2 were 50 to 100 nM and 100 to 500 nM, respectively.
For the molecule `N#C/C(=C\c1c[nH]c2ncccc12)C(=O)NCc1ccc(F)cc1F` [Example 65, (E)-2-cyano-N-(2,4-difluorobenzyl)-3-(1H-pyrrolo[2,3-b]pyridin-3-yl)acrylamide], the IC50 at GRK5 and on GRK2 was 1000 to 10000 nM each time.
Consider `N#C/C(=C\c1c[nH]c2ncccc12)C(=O)NCc1ccc(F)c(F)c1` [Example 66, (E)-2-cyano-N-(3,4-difluorobenzyl)-3-(1H-pyrrolo[2,3-b]pyridin-3-yl)acrylamide], for which the IC50 at GRK5 and on GRK2 was 100 to 500 nM throughout.
Take `N#C/C(=C\c1c[nH]c2ncccc12)C(=O)NCc1cc(F)cc(F)c1` [Example 67, (E)-2-cyano-N-(3,5-difluorobenzyl)-3-(1H-pyrrolo[2,3-b]pyridin-3-yl)acrylamide]: the IC50 on GRK5 and at GRK2 was 500 to 1000 nM throughout.
For `CC[C@@H](NC(=O)/C(C#N)=C/c1c[nH]c2ncccc12)c1ccccc1` [Example 68, (R,E)-2-cyano-N-(1-phenylpropyl)-3-(1H-pyrrolo[2,3-b]pyridin-3-yl)acrylamide], the IC50 at GRK5 and at GRK2 was 100 to 500 nM throughout.
In the case of `C[C@@H](NC(=O)/C(C#N)=C/c1c[nH]c2ncccc12)c1ccc(F)cc1` [Example 69, (R,E)-2-cyano-N-(1-(4-fluorophenyl)ethyl)-3-(1H-pyrrolo[2,3-b]pyridin-3-yl)acrylamide], the IC50 was at most 50 nM at GRK5 and 50 to 100 nM on GRK2.
For `C[C@@H](NC(=O)/C(C#N)=C/c1c[nH]c2ncccc12)c1ccc(Cl)cc1` [Example 70, (R,E)-N-(1-(4-chlorophenyl)ethyl)-2-cyano-3-(1H-pyrrolo[2,3-b]pyridin-3-yl)acrylamide], the IC50 at GRK5 is 100 to 500 nM; on GRK2, 500 to 1000 nM.
The like results for `N#C/C(=C\c1c[nH]c2ncc(C(F)(F)F)cc12)C(=O)NCc1ccccc1` [Example 71, (E)-N-benzyl-2-cyano-3-(5-(trifluoromethyl)-1H-pyrrolo[2,3-b]pyridin-3-yl)acrylamide] were, in that order, 1000 to 10000 nM and above 10000 nM.
Regarding `N#C/C(=C\c1c[nH]c2ncc(Cl)cc12)C(=O)NCc1ccc(F)cc1` [Example 72, (E)-3-(5-chloro-1H-pyrrolo[2,3-b]pyridin-3-yl)-2-cyano-N-(4-fluorobenzyl)acrylamide], the IC50 at GRK5 and at GRK2 was 1000 to 10000 nM throughout.
`N#C/C(=C\c1c[nH]c2ncc(Cl)cc12)C(=O)NCc1ccccc1` [Example 73, (E)-N-benzyl-3-(5-chloro-1H-pyrrolo[2,3-b]pyridin-3-yl)-2-cyanoacrylamide]: the IC50 on GRK5 and at GRK2 was 1000 to 10000 nM throughout.
Turning to `N#C/C(=C\c1c[nH]c2ncc(Cl)cc12)C(=O)NCc1ccccc1Cl` [Example 74, (E)-3-(5-chloro-1H-pyrrolo[2,3-b]pyridin-3-yl)-N-(2-chlorobenzyl)-2-cyanoacrylamide], the IC50 on GRK5 was 1000 to 10000 nM; on GRK2, above 10000 nM.
Turning to `N#C/C(=C\c1c[nH]c2ncc(Cl)cc12)C(=O)NCc1cc(F)cc(F)c1` [Example 75, (E)-3-(5-chloro-1H-pyrrolo[2,3-b]pyridin-3-yl)-2-cyano-N-(3,5-difluorobenzyl)acrylamide], the IC50 at GRK5 is 1000 to 10000 nM; at GRK2, above 10000 nM.
As to `C[C@@H](NC(=O)/C(C#N)=C/c1c[nH]c2ncc(Cl)cc12)c1ccc(F)cc1` [Example 76, (R,E)-3-(5-chloro-1H-pyrrolo[2,3-b]pyridin-3-yl)-2-cyano-N-(1-(4-fluorophenyl)ethyl)acrylamide], the IC50 at GRK5 was 100 to 500 nM; at GRK2 it was 500 to 1000 nM.
For `CC[C@@H](NC(=O)/C(C#N)=C/c1c[nH]c2ncc(Cl)cc12)c1ccccc1` [Example 77, (R,E)-3-(5-chloro-1H-pyrrolo[2,3-b]pyridin-3-yl)-2-cyano-N-(1-phenylpropyl)acrylamide], the values for the IC50 on GRK5 and on GRK2 were 100 to 500 nM and 1000 to 10000 nM, respectively.
